# Measurements published in patent publication US11357779B2 (G1 Therapeutics, Inc., priority 2018, dated 2022).
# Like-named read-outs stand apart in the source and are kept apart here.
# Key:
# [1] = Steady-state AUC0-24,ss, (AUC0-24,ss)/dose, half-life and time to steady state: Compound I versus palbociclib, ribociclib, abemaciclib; assay type: in vivo, human; details: for (Mean AUC0-24,ss)/Dose (mg) / Cmax / AUC(0-t): Day 29; for AUC(0-t): read-out: Mean AUC0-24,ss
# From the text: The time to reach steady state was defined as five half-lives (97% steady state achieved). […] The AUC data are presented as the arithmetic mean. […] The AUC data are presented as the geometric mean. The steady-state AUC0-24 for various BID doses of abemaciclib provided in Table 89 was obtained from the above cited prior published studies. The AUC data are presented as the geometric mean.
# clinical = details: human, in vivo
# tumor = details: mice, single dosage of 100 mg/kg; cited from earlier work
# [2] = human, in vivo
# Experimental: Absolute neutrophil count (ANC) was determined from the blood sample obtained from subjects described in Example 1 on day 22 using standard methods.
# Absolute neutrophil count (ANC) was also determined for blood samples obtained from subjects in all dosing cohorts (200 mg QD, 300 mg QD, 400 mg QD, 500 mg QD, 100 mg BID, and 150 mg BID dosage of Form B of Compound II).
# [3] = Slurry conversion of impure Form B to pure Form B (small scale and scale-up, XRPD); assay type: physicochemical
# Experimental: Approximately 16 small scale slurry experiments were carried out by varying the slurry concentration, temperature, HCl acid molar concentration, and content in the aqueous acetone mixtures as well as the water content. Slurries of impure Form B were performed in a given solvent system at targeted calculated concentration at ambient or elevated temperatures for various time/durations. The solids were isolated by vacuum filtration and submitted for XRPD analysis. The specific experimental conditions are detailed in Table 109 where solvent system ratios are by volume.
# The slurries in acidic aqueous acetone mixtures at an elevated temperature of 50° C. […] FIG. 19 compares XRPD patterns of Sample 3 and 5 to the starting material of the experiments, impure Form B and to pure Form B. For comparison purposes, the samples were also compared to a second impure sample of Form B, (Impure Form B Sample 2 in FIG. 19). This second impure Form B contained larger amounts of the unknown Form than the impure Form B previously described in Example 8.
# Several slurry experiments were performed in water:acetone solvent systems starting with impure Form B and varying the water:acetone ratio, slurry concentration, and time. Based on the initial slurry results, experiments in 1:2 (v/v) water:acetone at ambient temperature were performed with aliquots taken after 16 hours (Sample 6) and 20.5 hours (Sample 7). The slurry in this solvent system was conducted at a concentration of 100-125 mg/mL and ambient temperature. The XRPD patterns of the resulting materials were consistent with pure Form B (FIG. 20).
# In an effort to improve the yield, water:acetone 1:3 (v/v) was used at 150 mg/mL concentration (Samples 13 and 14) however, the conversion was not completed even after 4 days (FIG. 21). Therefore, one experiment was performed using water:acetone 1:2 (v/v) slurry for 18 hours and then adding acetone to reach ratio water:acetone 1:4 (v/v) followed by slurry for 4 hours (Sample 12). The XRPD pattern of the resulting material was consistent with Form B, however, one of the undesired peaks reappeared shifted from 3.95 °2θ to 4.2 °2θ (FIG. 21).
# The Julabo FP50 temperature control unit contained Julabo Thermal C10 fluid and the reactor temperature was measured with a K-type PTFE temperature probe. The experiments were carried out with Lara Control software version 2.3.5.0. The software tracked circulator temperature, vessel temperature, and stir rate, recording readings every tenth of a second throughout the experiment.
# The reactor vessel was charged with the solids of impure Form B (58.86 g) in 471 mL of a water:acetone 1:2 (v/v) solvent system achieving 125 mg/mL slurry concentration (Samples 20-23). The resulting slurry was stirred at 30° C. for up to 43 hours with stirring speed of 400 rpm. The slurry was cooled to 25° C. over 30 minutes, discharged from the reactor vessel, and immediately slowly filtered (drop by drop) to […]. A water:acetone 1:2 (v/v) wash solution was prepared in advance and used to wash the filter cake in one portion.
# Pulls were taken usually at the 20th hour and if needed at later time points (Table 110).
# The conversion of impure Form B to pure Form B was conducted in water:acetone 1:2 (v/v) slurry at 125 mg/mL concentration and 30° C. for 43 hours. Very slow filtration was observed and the wet cake was air-dried at ambient conditions for 3.5 hours followed by vacuum drying at ambient temperature and 15 in Hg for 0.5 hour and then at ˜27 in Hg for 3.5 hours yielding 49.26 g ([…]).
# [4] = 200 mg QD of Form B of Compound II, five half-lives
# [5] = human, plasma, oral, 200 mg QD of Form B of Compound II
# [6] = human, plasma, oral, 300 mg QD of Form B of Compound II
# [7] = human, plasma, oral, 400 mg QD of Form B of Compound II
# [8] = human, plasma, oral, 500 mg QD of Form B of Compound II
# [9] = human, plasma, oral, 650 mg QD of Form B of Compound II
smiles,measurement,setting,value
"CC(C)N1CCN(c2ccc(Nc3ncc4cc5n(c4n3)C3(CCCCC3)CNC5=O)nc2)CC1 [Compound I, 2′-((5-(4-isopropylpiperazin-1-yl)pyridin-2-yl)amino)-7′,8′-dihydro-6′H-spiro[cyclohexane-1,9′-pyrazino[1′,2′:1,5]pyrrolo[2,3-d]pyrimidin]-6′-one]","(Mean AUC0-24,ss)/Dose (mg)",[1]; 200 mg QD of Form B of Compound II,1.15 ng·h/mL/mg
same,Time to Steady State,[1]; [4],3.2 days
same,Time to Steady-State,[1]; [4],76 h
same,"(Mean AUC0-24,ss)/Dose (mg)",[1]; 300 mg QD of Form B of Compound II,1.97 ng·h/mL/mg
same,"(Mean AUC0-24,ss)/Dose (mg)",[1]; 400 mg QD of Form B of Compound II,0.695 ng·h/mL/mg
same,"(Mean AUC0-24,ss)/Dose (mg)",[1]; 500 mg QD of Form B of Compound II,1.21 ng·h/mL/mg
same,"(Mean AUC0-24,ss)/Dose (mg)",[1]; 650 mg QD of Form B of Compound II,1.47 ng·h/mL/mg
same,"(AUC0-24,ss)/Dose","[1]; Compound I, Day 29, QD dosing of Form B of Compound II",≤ 5
same,half-life,[1]; [5],15.2 h
same,Cmax,[1]; [5],20.4 ng/mL
same,AUC(0-t),[1]; [5],229 ng·h/mL
same,Cmax,[1]; [6],47 ng/mL
same,AUC(0-t),[1]; [6],592 ng·h/mL
same,Cmax,[1]; [7],19 ng/mL
same,AUC(0-t),[1]; [7],278 ng·h/mL
same,Cmax,[1]; [8],43.2 ng/mL
same,AUC(0-t),[1]; [8],607 ng·h/mL
same,Cmax,[1]; [9],66 ng/mL
same,AUC(0-t),[1]; [9],956 ng·h/mL
same,AUC(0-t),clinical; 200 mg,229 ng·h/mL
same,AUC(0-t),clinical; 300 mg,592 ng·h/mL
same,AUC(0-t),clinical; 400 mg,278 ng·h/mL
same,AUC(0-t),clinical; 500 mg,607 ng·h/mL
same,"(AUC0-24,ss)/ANC",clinical; 650 mg,0.89
same,AUC(0-t),clinical; 650 mg,956 ng·h/mL
same,distribution to tumor,tumor,concentrates in the tumor
same,"(AUC0-24,ss)/ANC",[2]; 200 mg,0.10
same,"(AUC0-24,ss)/ANC",[2]; 300 mg,0.47
same,"(AUC0-24,ss)/ANC",[2]; 400 mg,0.15
"CC(C)N1CCN(c2ccc(Nc3ncc4cc5n(c4n3)C3(CCCCC3)CNC5=O)nc2)CC1 [Compound II, 2′-((5-(4-isopropylpiperazin-1-yl)pyridin-2-yl)amino)-7′,8′-dihydro-6′H-spiro[cyclohexane-1,9′-pyrazino[1′,2′:1,5]pyrrolo[2,3-d]pyrimidin]-6′-one]",XRPD Result,"[3]; 125 mg/mL Slurry, 30° C., 20 h",Form B + small broad
same,XRPD Result,"[3]; 125 mg/mL Slurry, 30° C., 24 h",B + broad peaks at 4.2°
same,XRPD Result,"[3]; 125 mg/mL Slurry, 30° C., 42 h",Form B
same,XRPD Result,"[3]; 125 mg/mL Slurry, 30° C., 43 h VF, washed with 50 mL of H2O:acetone 1:2, Air-dried for 3.5 h",Form B
same,XRPD Result,"[3]; Vacuum drying, 22° C., 0.5 h, 15 in Hg, 22° C. 1.5 h, 27-28 in Hg",Form B
same,XRPD Result,"[3]; Vacuum drying, 22° C., 2.0 h, 27 in Hg",Form B
